The test system of one experiment is collagenase. In words: Inhibitory activity on collagenase (azocoll assay). Type of experiment: biochemical. Particulars: for Comparative inhibitory activity: [collagenase-inhibitory percentage of TUDCA / that of UDCA]*100. The protocol: The inhibitory activities of tauroursodeoxycholic acid (TUDCA) and ursodeoxycholic acid (UDCA) on collagenase were evaluated according to an azocoll assay method. Azocoll, Azo dye-impregnated collagen, is not dissolved in Tris-buffer. […] Therefore, by reacting said test materials with azocoll and then measuring the respective absorbance, the inhibitory activities of said materials on collagenase can be determined.
2% Azocoll solution (200 μl) and a buffer solution (0.01 M Tris-HCl, 1 mM CaCl2, pH 7.8) (150 μl) were respectively added to the 6 test tubes to obtain the solutions (Solution A1 to A6). Each solution (100 μl) obtained by dissolving TUDCA or UDCA in 10% ethanol in various concentrations was added to the solutions A1 to A6, so as to obtain the final concentrations of 1.600 w/v %, 0.533 w/v %, and 0.178 w/v %, respectively. Collagenase (50 μl) having 100 ppm concentration was added to the respective test mixture, which was then stirred in a 37° C. incubator for 18 hours. Each test tube was centrifuged for 5 minutes. The supernatant was separated from each test tube and then added to a 96-well plate. The absorbance at 540 nm was measured by a spectrophotometer and then the activity of the test group was determined from the standard activity curve. The standard activity curve was separately prepared by adding 10, 25, 50, and 100 μl of collagenase to the azocoll solution.
The collagenase-inhibitory ratio of TUDCA to the collagenase-inhibitory ratio of UDCA was determined according to the following formula and the results thereof are shown in Table 1. Comparative inhibitory activity=[Collagenase-inhibitory percentage of TUDCA/Collagenase-inhibitory percentage of UDCA]*100

For another experiment, the system named is S. mutans. The experiment is described as follows: Antimicrobial activity against S. mutans (growth inhibition, O.D. 600 nm). Type of experiment: cell-based, Streptococcus mutans. The protocol: We evaluated antimicrobial activities of TUDCA (PRODOTTI CHIMICI E ALIMENTARI S.p.A. Co., Italy), bamboo salt, xanthorrhiza oil (curcuma xanthorrhiza oil having 22-35% of xanthorrhizol, ‘Curcuma Xanthorrhiza Essential Oil’ extracted from Curcuma Xanthorrhiza Root, Daewoong Bio Inc.), and a mixture thereof, against S. Mutans. Briefly, to each well of a 96-well plate, were added 100 μl of BHI broth (Brain Heart Infusion broth, Sigma-Aldrich) and each test material in two times higher concentration than the concentration shown in the following Table 2. S. mutans was cultured in BHI broth (Brain Heart Infusion broth, Sigma-Aldrich) at 35° C. for 24 hours. Absorbance at 600 nm of the S. mutans-containing culture medium was adjusted to 0.063 to 0.12 and then the resulting culture medium was diluted to 1/500. The diluted S. Mutans-containing culture medium (100 μl) was added to each well of the 96-well plate. The 96-well plate was incubated at 35° C. for 24 hours, followed by measuring the O.D. values at 600 nm with a spectrophotometer for obtaining the respective growth inhibition percentage.
Antimicrobial activities against S. mutans were evaluated using TUDCA in a relatively low concentration. Using the same kinds of TUDCA, bamboo salt, and xanthorrhiza oil, the evaluations of antimicrobial activity were carried out in the same manners as in Example 2.

Regarding `C[C@H](CCC(=O)NCCS(=O)(=O)O)[C@H]1CC[C@H]2[C@@H]3[C@@H](O)C[C@@H]4C[C@H](O)CC[C@]4(C)[C@H]3CC[C@]12C` [TUDCA, tauroursodeoxycholic acid], in the experiment on collagenase (at the same concentration, in comparison with UDCA), the “inhibitory activity against collagenase in comparison with UDCA” value is listed as “about two times more strong inhibitory activity against collagenase”. In addition, the Comparative inhibitory activity in the experiment on collagenase (test material 0.178 w/v %) worked out at 264.75%; in the experiment with collagenase (test material 0.533 w/v %), 252.56%; with collagenase (test material 1.600 w/v %) it was 227.17%. The Growth inhibition in the experiment on S. mutans (Table 2, TUDCA 0.5 w/v %) was 38 ± 16%; in the experiment on S. mutans (Table 2, TUDCA 1 w/v %), 51 ± 13%; in the experiment on S. mutans (Table 3, TUDCA 0.01 w/v %), 13%. In addition, in the experiment on S. mutans (summary of Table 2), the “growth-inhibition activity against S. mutans (in words)” value was “effective growth-inhibition activity”.

(Values after US9301911B2, “Composition comprising tauroursodeoxycholic acid” (priority 2012, dated 2016).)
